Laboratory results published in PMC6590088 (Science signaling, 2010).
Non-standard residues stand in square brackets, D forms with d. No end group written: not given here. pY = N[C@@H](Cc1ccc(OP(=O)(O)O)cc1)C(=O)O

How the values were obtained:
BRDG1 SH2 domain (WT) = molecular target: T1, BRDG1 SH2 domain (WT) (Homo sapiens, UniProt Q9ULZ2); assay: Fluorescence polarization binding assay, wild-type BRDG1 SH2 domain; settings: table S2B
T1 sequence (Q9ULZ2 177-280 limits assumed): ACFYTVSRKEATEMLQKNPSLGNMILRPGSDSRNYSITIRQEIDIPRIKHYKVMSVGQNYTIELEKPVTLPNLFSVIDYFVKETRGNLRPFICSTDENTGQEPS

BKS SH2 domain = assay: Peptide-binding experiments, BKS SH2 domain; settings: table S2B
[1] = molecular target: NTAL pTyr136 peptide with Leu+4 replaced by Ala (human); assay: fluorescence polarisation
[2] = molecular target: T2, BRDG1 SH2 domain (Asp167-Ser285) C269A (human, UniProt Q9ULZ2 167-285, C269A); assay: crystal structure
T2 sequence (looked up): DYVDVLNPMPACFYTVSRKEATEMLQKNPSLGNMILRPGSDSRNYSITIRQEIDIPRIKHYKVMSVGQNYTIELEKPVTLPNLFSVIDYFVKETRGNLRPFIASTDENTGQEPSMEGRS

## NSpY^136ENVLICK [NTAL-pTyr^136]
BRDG1 SH2 domain (WT)
  affinity for the BRDG1 SH2 domain (in words): high affinities
BKS SH2 domain
  binding to the BKS SH2 domain (in words): bound strongly

B1: BRDG1 SH2 domain, wild type (fluorescence polarization) (domain or fragment)
chain: T1 sequence (Q9ULZ2 177-280 limits assumed)
[1]
  fold reduction in affinity relative to the wild-type NTAL peptide: 12 fold

B2: NTAL phosphopeptide ANSpY136ENVLIAK-NH2 (peptide)
peptide: ANS[pY]ENVLIAK-NH2
modifications: N-terminus assumed
SMILES: CC[C@H](C)[C@H](NC(=O)[C@H](CC(C)C)NC(=O)[C@@H](NC(=O)[C@H](CC(N)=O)NC(=O)[C@H](CCC(=O)O)NC(=O)[C@H](Cc1ccc(OP(=O)(O)O)cc1)NC(=O)[C@H](CO)NC(=O)[C@H](CC(N)=O)NC(=O)[C@H](C)N)C(C)C)C(=O)N[C@@H](C)C(=O)N[C@@H](CCCCN)C(N)=O
[2]
  binding result: binds
